In ChEMBL document CHEMBL4834449, “Anti-inflammatory Eudesmane Sesquiterpenoids from Artemisia hedinii” (2021):
Calls of active or inactive are those of the source. No cut-off for these calls is given here.

Tests used:
BMDM [1] = experiment: Antiinflammatory activity in LPS-induced in C57 mouse BMDM cells assessed as reduction in TNFalpha mRNA expression at 20 uM incubated for 12 hrs by qRT-PCR analysis; assay type: functional, cell-based
BMDM [2] = experiment: Antiinflammatory activity in LPS-induced in C57 mouse BMDM cells assessed as reduction in IL-12 mRNA expression at 20 uM incubated for 12 hrs by qRT-PCR analysis; assay type: functional, cell-based
BMDM [3] = experiment: Antiinflammatory activity in LPS-induced in C57 mouse BMDM cells assessed as reduction in IFN-gamma level at 5 to 20 uM by ELISA (Rvb < 7.8 pg/ml); assay type: functional; settings: dose 5-20 µM
BMDM [4] = experiment: Antiinflammatory activity in LPS-induced in C57 mouse BMDM cells assessed as reduction in IL-6 level by ELISA; assay type: functional, cell-based
BMDM [5] = experiment: Antiinflammatory activity in LPS-induced in C57 mouse BMDM cells assessed as reduction in TNFalpha level by ELISA; assay type: functional, cell-based
BMDM [6] = experiment: Antiinflammatory activity in LPS-induced in C57 mouse BMDM cells assessed as reduction in IFN-gamma level at 10 to 20 uM by ELISA (Rvb < 7.8 pg/ml); assay type: functional; settings: dose 10-20 µM

| Structure (SMILES) | inhibition (BMDM [1]) | inhibition (BMDM [2]) | Activity (BMDM [3]) | inhibition (BMDM [3]) | inhibition (BMDM [4]) | inhibition (BMDM [5]) | Activity (BMDM [6]) | inhibition (BMDM [6]) |
| --- | --- | --- | --- | --- | --- | --- | --- | --- |
| C=C(C(=O)O)[C@H]1CC2=C(C(=O)O)CCC[C@]2(C)[C@@H](OC(C)=O)C1 | Active | Active | – | – | – | – | – | – |
| C[C@]12CCC(=O)C=C1[C@H](O)[C@H]([C@](C)(O)CO)CC2 | Active | Active | <7.8 pg/mL | Dose-Dependent Effect | Dose-Dependent Effect | Dose-Dependent Effect | – | – |
| C=C(C(=O)O)[C@H]1CC2=C(C)[C@H](OC)CC[C@]2(C)[C@@H](OC(C)=O)C1 | Active | Active | – | – | – | – | – | – |
| C=C(C(=O)O)[C@H]1C=C2C(C)=CCC[C@]2(C)[C@@H](OC(C)=O)C1 | Active | Active | – | – | – | – | – | – |
| CC(=O)O[C@H]1C[C@@H]([C@](O)(CO)C(=O)O)CC2=C(C)CCC[C@@]21C | Active | Active | – | – | – | – | – | – |
| C=C(C(=O)O)[C@H]1CC2=C(C)[C@H](OCC)CC[C@]2(C)[C@@H](OC(C)=O)C1 | Active | Active | – | – | – | – | – | – |
| C=C(C(=O)O)[C@H]1CC2=C(C)[C@H](O)CC[C@]2(C)[C@@H](OC(C)=O)C1 | Active | Active | – | – | – | – | – | – |
| C=C(C(=O)O)[C@H]1C=C2C(C)=CCC[C@]2(C)[C@@H](O)C1 | Active | Active | <7.8 pg/mL | Dose-Dependent Effect | Dose-Dependent Effect | Dose-Dependent Effect | – | – |
| C=C(C(=O)O)[C@H]1CC2=C(C=O)CCC[C@]2(C)[C@@H](O)C1 | Active | Active | – | – | – | – | – | – |
| C=C(C(=O)O)[C@@H]1C[C@H](O)[C@@]2(C)CCCC(=C)[C@]2(O)C1 | Active | Active | – | – | – | – | – | – |
| C=C(C(=O)O)[C@@H]1C[C@H](OC(C)=O)[C@@]2(C)CCCC(=C)[C@]2(O)C1 | Active | Active | <7.8 pg/mL | Dose-Dependent Effect | Dose-Dependent Effect | Dose-Dependent Effect | – | – |
| C=C(C(=O)O)[C@@H]1CC[C@@]2(C)CCC[C@@](C)(O)[C@@H]2C1 | Active | Active | – | – | – | – | – | – |
| CC(=O)O[C@H]1C[C@@H]([C@@](O)(CO)C(=O)O)CC2=C(C)CCC[C@@]21C | Active | Active | – | – | Dose-Dependent Effect | Dose-Dependent Effect | <7.8 pg/mL | Dose-Dependent Effect |
| C=C(C(=O)O)[C@H]1CC2=C(CO)CCC[C@]2(C)[C@@H](OC(C)=O)C1 | Active | Active | – | – | – | – | – | – |
| C=C(C(=O)O)[C@H]1CC2=C(C)[C@@H](O)CC[C@]2(C)[C@@H](OC(C)=O)C1 | Active | Active | – | – | – | – | – | – |
| C=C(C(=O)O)[C@H]1CC2=C(C)C(=O)CC[C@]2(C)[C@@H](OC(C)=O)C1 | Active | Active | <7.8 pg/mL | Dose-Dependent Effect | Dose-Dependent Effect | Dose-Dependent Effect | – | – |
| C=C(C(=O)O)[C@H]1CC2=C(C)CCC[C@]2(C)[C@@H](O)C1 | Active | Active | – | – | Dose-Dependent Effect | Dose-Dependent Effect | <7.8 pg/mL | Dose-Dependent Effect |
| C=C(C(=O)O)[C@H]1CC2=C(C)CCC[C@]2(C)[C@@H](OC(C)=O)C1 | Active | Active | – | – | – | – | – | – |
| C=C(C(=O)O)[C@@H]1C[C@H](OC(C)=O)[C@@]2(C)CCCC(=C)[C@@]2(O)C1 | Active | Active | – | – | – | – | – | – |
| C=C(C(=O)O)[C@H]1CC2=C(C)C(=O)CC[C@]2(C)[C@@H](O)C1 | Active | Active | – | – | – | – | – | – |
